Data taken from patent US20020115594A1, “Peptide antagonists at glutamate and NMDA receptors” (priority 1993, published 2002).
Ends that are not written are not given here.

Columns and labels:
[1] = tested on: GnRH secretion by hypothalamic explants; assay: In vitro GnRH secretion by hypothalamic explants induced by veratridine (static incubation, GnRH radioimmunoassay); type: cell-based, rat
Method: (§1) The hypothalamic explants of male Wistar rats were studied individually using a static incubation system described earlier (1-3, 9). The total incubation volume of each chamber (0.5 ml) was sampled and renewed every 7.5 min. Using these fractions, the radioimmunoassay of GnRH was performed as described in detail previously (1, 2). The secretion of GnRH was studied either in the absence of any secretagogue or during the 7.5-min exposure to 5.10^−5 M of veratridine, a depolarizing agent opening the Na^+ channel, or 5.10^−2 M of kainate or N-methyl-D, L-aspartate (NMA) which are agonists of distinct subtypes of glutamate receptors. All these products were bought from Sigma, St Louis, Mo. At 25 and 50 days, veratridine was used repeatedly at 37.5-min intervals. At 15 days, veratridine was used at 52.5-min intervals, i.e. beyond the period of refractoriness caused by the inhibitory autofeedback of GnRH(11). The secretory response of GnRH was calculated as the difference between the concentration measured immediately before and during exposure to the secretagogue.
(§2) We studied the effects of the in-vitro exposure to increasing concentrations of recombinant hIGF-I (Kabi-Pharmacia, Stockholm, Sweden) or its two subproducts, (1-3)IGF-I (Peninsula, Merseyside, England) and (4-70)IGF-I (Gropep, Adelaide, Australia). We also studied the effects of other peptides. The GnRH fragments and analogs included (1-5) GnRH (UCB, Brussels, Belgium), (2-10)GnRH (Sigma, St Louis, Mo., USA) and (1-9)GnRHa (D-TRP^6-PRO^9-N-Ethylamide GnRH) a GnRH agonist kindly provided by Dr J Rivier (The Salk Institute, California, USA). The bovine Proinsulin and its subproducts included the C-peptide of insulin and insulin itself (Novo-Nordisk, Copenhagen, Denmark). Finally, the GRF-related peptides included (1-43) rat GRP (Bachem, Bubendorf, Switzerland), (1-37) human GRF (Peninsula, Merseyside, England) and (1-29)human GRF (Kabi Pharmacia, Stockholm, Sweden). AP-5 (DL-2-amino-5-phosphonovaleric acid, Sigma), a selective antagonist at NMDA receptors and DNQX (6,7-dinitro-quinoxaline-2,3-dione, Tocris Neuramin, Buckhurst Hill, United Kingdom) a selective antagonist at kainate receptors, were also used. The different peptides or antagonists were used for 15 min, i.e. the 7.5-min fraction before and during exposure to veratridine. We also studied the effects of a single s.c. injection of IGF-I or its subproducts in 15 or 50 day-old rats. Then, the animals were sacrificed and the hypothalamic explants studied 25 min after the injection, this interval being required to obtain plasma concentrations of IGF-I sufficient to affect protein metabolism (A. Skottner, personal communication). At that time, the serum was collected for the assay of IGF-I using a method described elsewhere (15) and testosterone was measured as well using a standard RIA (Sorin Biomedica). The concentration of the studied substances resulting in 50% inhibition of the GnRH secretory response (IC50) was calculated as described earlier (3, 9) and the data were compared by covariance analysis. The occurrence of significant GnRH secretory pulses was determined using the pulsar program (2, 3).
FIG. 1. In vitro effects of IGF-I-related peptides on GnRH secretion by hypothalamic explants at 15, 25 and 50 days. GnRH secretory response to depolarizing episodes (veratridine 50 μM for 7.5 min) was studied repeatedly at intervals of 52.5 min at 15 days or 37.5 min at 25 and 50 days. Such study was performed in control conditions or in the presence of increasing concentrations of IGF-I and subproducts, (4-70)IGF-I and (1-3)IGF-I, as well as AP-5, a competitive antagonist at NMDA receptors. Each experiment was preceded and followed by a veratridine challenge in control conditions.

[2] = tested on: NMDA receptors; assay: In vitro GnRH secretion by hypothalamic explants induced by NMA; type: cell-based, rat; settings: 10^−6 M; explants of 50-day-old male rats; FIG. 8
Method: as §1, with “At 25 and 50 days, veratridine was used repeatedly at 37.5-min intervals. At 15 days, veratridine was used at 52.5-min intervals, i.e. beyond the period of refractoriness caused by the inhibitory autofeedback of GnRH(11).” left out
(§3) We studied the effects of the in-vitro exposure to increasing concentrations of recombinant hIGF-I (Kabi-Pharmacia, Stockholm, Sweden) or its two subproducts, (1-3)IGF-I (Peninsula, Merseyside, England) and (4-70)IGF-I (Gropep, Adelaide, Australia). […] At that time, the serum was collected for the assay of IGF-I using a method described elsewhere (15) and testosterone was measured as well using a standard RIA (Sorin Biomedica). […] The occurrence of significant GnRH secretory pulses was determined using the pulsar program (2, 3). […]

[3] = tested on: GnRH secretion by hypothalamic explants; assay: In vitro GnRH secretion by hypothalamic explants induced by veratridine (static incubation, GnRH radioimmunoassay); type: cell-based, rat; remark: listed apart in the source
[4] = tested on: kainate receptors; assay: In vitro GnRH secretion by hypothalamic explants induced by kainate; type: cell-based, rat; settings: 10^−6 M; explants of 50-day-old male rats; FIG. 8
Method: as §1, with “At 25 and 50 days, veratridine was used repeatedly at 37.5-min intervals. At 15 days, veratridine was used at 52.5-min intervals, i.e. beyond the period of refractoriness caused by the inhibitory autofeedback of GnRH(11).” left out
as §3

[5] = tested on: glutamate receptors; assay: Displacement of tritiated glutamate from hypothalamic membrane preparations; type: binding; settings: FIG. 9
Source text: Hypothalmic membrane preparations are used to study the displacement of tritiated glutamate binding in the presence of different compounds. Glutamate is able to displace the binding of the tracer at relatively low 10^−6 to 10^−8 concentrations. […] This is because the affinity of tritiated glutamate for the NMDA receptors is less than for the other subtypes of glutamate receptors.

[6] = tested on: brain hypoxic-ischemic injury; settings: reported in refs 22, 23; cited from earlier work
[7] = tested on: GnRH secretion by hypothalamic explants; assay: Spontaneous pulsatile secretion of GnRH from hypothalamic explants after s.c. injection; type: in vivo, rat; settings: s.c. injection of 0.1 mg/kg; 50-day-old rats; data not shown
Source text: as §2, with “The different peptides or antagonists were used for 15 min, i.e. the 7.5-min fraction before and during exposure to veratridine. We also studied the effects of a single s.c. injection of IGF-I or its subproducts in 15 or 50 day-old rats. Then, the animals were sacrificed and the hypothalamic explants studied 25 min after the injection, this interval being required to obtain plasma concentrations of IGF-I sufficient to affect protein metabolism (A. Skottner, personal communication).” left out, “The concentration of the studied substances resulting in 50% inhibition of the GnRH secretory response (IC50) was calculated as described earlier (3, 9) and the data were compared by covariance analysis.” left out, “3). […]” for “3).”

[8] = tested on: GnRH secretion by hypothalamic explants; assay: Ex vivo veratridine-induced GnRH secretion by hypothalamic explants after in-vivo s.c. injection; parameters: species or system rat
Source text: as §2, with “3). […]” for “3).”

[9] = in vitro, explants of 50-day-old rats, FIG. 7

Q: For NC(CCCP(=O)(O)O)C(=O)O (racemic) [AP-5, DL-2-amino-5-phosphonovaleric acid, reference compound], which “effect on veratridine-induced secretion of GnRH” value ([1]; in vitro, explants at 15, 25 and 50 days) is on record?
A: Its value is “dose-related suppression”.

Q: What about the “effect on secretion of GnRH induced by NMA” value [2] of the same molecule?
A: The value was “inhibitory effects”.

Q: Which “GnRH secretion induced by veratridine 5.10^−5 M” value ([3]; +NMA 5.10^−4 M alone, 50-day-old male rats, mean, n = 6) does the source give for CNC(CC(=O)O)C(=O)O (racemic) [NMA, N-methyl-D, L-aspartate, reference compound] here?
A: The value was 98 % of controls.

Q: With O=C1N=c2cc([N+](=O)[O-])c([N+](=O)[O-])cc2=NC1=O [DNQX, 6,7-dinitro-quinoxaline-2,3-dione] as the molecule, how does the “effect on kainate-induced secretion of GnRH” value [4] read?
A: Its value is “inhibitory effects”.

Q: With N[C@@H](CCC(=O)O)C(=O)O [Glutamate] as the molecule, how does the “concentrations displacing the binding of the tracer” value [5] read?
A: The value was 10^−6 to 10^−8.

Q: Which “effect on veratridine-induced secretion of GnRH” value ([1]; FIG. 6) does the source give for “(1-5)GnRH: peptide with a N-terminal glutamic acid which results from the degradation of GnRH in the hypothalamus (QHWSY; ends and bridges not checked; UniProt P01148 24-28, looked up, fragment)” here?
A: The value was “inhibited”.

Q: What about the “displacement of tritiated glutamate binding” value [5] of the same molecule?
A: Its value is “act as competitors of glutamate binding”.

Q: For “(1-29)GRF: human GRF subproduct retaining GH-releasing activity (YADAIFTNSYRKVLGQLSARKLLQDIMSR; Somatoliberin; UniProt P01286 32-60, looked up, fragment) [reference compound]”, which “effect on veratridine-induced secretion of GnRH” value [1, 9] is on record?
A: Its value is “does not affect”.

Q: For “(1-37)GRF: human GRF subproduct, minor physiological form with a C-terminal glutamic acid (YADAIFTNSYRKVLGQLSARKLLQDIMSRQQGESNQE; Somatoliberin; UniProt P01286 32-68, looked up, fragment)”, which “effect on veratridine-induced secretion of GnRH” value [1, 9] is on record?
A: The value was “dose-related inhibition”.

Q: With “(1-43)GRF: full (1-43) sequence of rat Growth Hormone-Releasing Factor (HADAIFTSSYRRILGQLYARKLLHEIMNRQQGERNQEQRSRFN; Somatoliberin; UniProt P09916 31-73, looked up) [reference compound]” as the molecule, how does the “effect on veratridine-induced secretion of GnRH” value [1, 9] read?
A: Its value is “dose-related inhibition”.

Q: For “D-TRP^6-PRO^9-N-Ethylamide GnRH [(1-9)GnRHa, reference compound]”, which “effect on veratridine-induced secretion of GnRH” value ([1]; FIG. 6) is on record?
A: The value was “can be inhibited”.

Q: And the IC50 ([1]; FIG. 6, read-out: IC50, inhibition of veratridine-induced GnRH secretion)?
A: Its IC50 is 0.2 nM.

Q: For “IGF-I: recombinant hIGF-I (Kabi-Pharmacia)”, which “protection against brain hypoxic-ischemic injury” value [6] is on record?
A: Its value is “can protect”.

Q: What about the “effect on GnRH secretion at very high concentrations” value ([1]; 10^−4 and 10^−3 M, explants at 15 days, FIG. 4) of the same molecule?
A: Its value is “inhibition of GnRH secretion”.

Q: And the “effect on veratridine-induced secretion of GnRH” value ([1]; in vitro, explants at 25 and 50 days)?
A: Its value is “dose-related inhibition”.

Q: What about the “effect on veratridine-induced secretion of GnRH” value ([1]; in vitro, explants at 15 days) of the same molecule?
A: The value was “not affected”.

Q: And the “inhibitory effect on GnRH secretion in the presence of peptidase inhibitors” value ([1]; three different peptidase inhibitors, FIG. 5)?
A: The value was “can be prevented”.

Q: And the “period for which spontaneous pulsatile secretion of GnRH is abolished” value [7]?
A: The value was ~2 h.

Q: And the “displacement of tritiated glutamate binding” value [5]?
A: Its value is “act as competitors of glutamate binding”.

Q: What about the “effect on GnRH secretion from explants of 30-day-old female rats” value ([3]; data not shown) of the same molecule?
A: The value was “inhibited”.

Q: What about the “period of suppression of the GnRH secretory response to veratridine” value ([8]; s.c. 0.05-0.2 mg/kg, directly related to dose, 50-day-old animals) of the same molecule?
A: The value was 47.5 to 107.5 min.

Q: What about the “ex vivo effectiveness on veratridine-induced GnRH secretion at 15 and 50 days” value ([8]; s.c. injection, higher doses at 15 days, FIG. 3) of the same molecule?
A: Its value is “only effective at 50 days”.

Q: What about the “period of marked inhibition of in-vitro GnRH secretion in response to veratridine” value ([8]; single s.c. injection of 0.5 mg/kg, 50-day-old animals) of the same molecule?
A: Its value is “up to 167.5 min”.

Q: Which “effect on veratridine-induced secretion of GnRH” value [1, 9] does the source give for insulin: bovine insulin here?
A: The value was “no effects”.

B1: Proinsulin: bovine Proinsulin (protein, UniProt P01317 25-105, looked up)
pro-form: FVNQHLCGSHLVEALYLVCGERGFFYTPKARREVEGPQVGALELAGGPGAGGLEGPPQKRGIVEQCCASVCSLYQLENYCN
modifications: pro-form
Q: Which “effect on veratridine-induced secretion of GnRH” value [1, 9] does the source give for B1 here?
A: Its value is “dose-related suppression”.
